From US10201530B2, “Treatment of BRCA1-defective cancer or resistant cancers” (City of Hope, priority 2014, dated 2019)

Key:
[1] = tested on: DNA damage checkpoint proteins (ATM, CHK1, CHK2, γ-H2AX); experiment: DNA damage checkpoint proteins by Western blot; format: cell-based, human
Description: (§1) For subcellular fractionation, cells were trypsinized and washed with cold PBS solution twice. After centrifugation at 1,200 g for 5 min, cells were incubated in buffer (50 mM HEPES, pH 7.5, 150 mM NaCl, 1 mM EDTA) containing 0.2% NONIDET™ P-40 (NP-40), supplemented with protease inhibitors (5 μg/ml each of pepstatin, leupeptin, and aprotinin) and phosphatase inhibitors on ice for 5 min. Following centrifugation at 1,000 g for 5 min, the supernatant was collected (i.e., cytoplasmic fraction) and pellets were washed with the same buffer twice. The washed samples were extracted for 40 min on ice with fractionation buffer containing 0.5% NP-40 for nuclear fraction. All the samples were sonicated and clarified by centrifugation at 16,000 g for 15 min. Protein concentrations of all fractions were determined with Bio-Rad Protein Assay (Bio-Rad Laboratories, Hercules, Calif.). Immunoblotting was performed as described previously (21,22). Briefly, equal amounts of boiled protein samples were subjected to SDS-polyacrylamide gel electrophoresis (PAGE) and transferred onto nitrocellulose membranes (Bio-Rad Laboratories). Membranes were blocked for 1 hour in 3% BSA in Tris buffered saline containing 0.05% Tween 20 (TBST) and incubated for 1 hour with primary antibody (1:500 or 1:1000) diluted in TBST containing 1% BSA. After two washes with TBST, membranes were incubated for 1 hour with horseradish peroxidase-conjugated secondary Abs (1:3000 dilution) at room temperature. The immunoblots were visualized on film with the West-Q chemi-luminescence kit (GenDEPOT, Barker, Tex.).

KB-Gem = experiment: Cytotoxicity, KB-Gem cells; format: cell-based, human; conditions: Homo sapiens, gemcitabine-resistant, read-out: IC50, mean ± SEM
Description: (§2) All cell lines were acquired from the American Type Culture Collection (Manassas, Va., USA). Cells were maintained in RPMI 1640 medium (Mediatech) with 10% fetal bovine serum, 2 mM glutamine, and 100 U of penicillin and 100 μg of streptomycin per ml of medium (Sigma) at 37° C. in 5% CO2. To isolate HCC1437+BRCA1 cells, parental HCC1937 cells were transfected with pcDNA3.1 plasmid expressing full-length BRCA1 cDNA. Stable transfectant clones were selected and used for drug sensitivity assays. For stable transfection, cells at 30-40% confluence were incubated overnight with […] of plasmid DNA, using FUGENE® 6 transfectin reagent (Roche Molecular Biochemical, Monza, Italy) according to the manufacturer's instructions. Cells were then selected in puromycin (1 μg/ml) (Invitrogen life Technologies, La Jolla, Calif., USA.) After 20 to 30 days, viable puromycin-resistant colonies from HCC1937 transfections were expanded and screened. The clones that stably expressed […] and retained growth potential were assayed for BRCA1 expression by Western blot analysis. By Western blot analysis, we evaluated the restoration of BRCA1 expression in the puromycin-resistant cDNA/transfectant cells.
(§3) The MTT cytotoxicity assay was performed by incubating with MTT and monitoring the MTT formazan formed by viable cells with a microplate reader at a wavelength of 560 nm; the survival, ratio was determined using the formula: (Atest−Ablank)/(Acontrol−Ablank)×100%. The cytotoxicity was determined in 96-well plates using the semiautomatic fluorescence-based Digital Imaging Microscopy System (DIMSCAN). DIMSCAN uses digital imaging microscopy to quantify viable cells, which selectively accumulate FDA (fluorescein diacetate; Alfa Aesar, Ward Hill, Mass.). DIMSCAN is capable of measuring cytotoxicity over a 4 log dynamic range by quantifying total fluorescence per well (which is proportional to the number of viable cells) after elimination of the background fluorescence by digital thresholding and eosin Y (Mallinckrodt Baker, Center Valley, Pa.) quenching. Cells were seeded into 96-well plates in 100 μL of complete medium at 2,000 to 5,000 cells per well depending on cell line growth rate. After overnight incubation, test compound was added to each well at various concentrations in 50 μL of culture medium. After incubation with the drugs for 96 hours at 37° C., FDA (final concentration: […]) and eosin Y [final concentration: 0.1% (w/v)] were added to each well and the cells were incubated for an additional 20 minutes at 37° C. Total fluorescence per well was then measured using DIMSCAN, and the results were expressed as the ratio of the fluorescence in treated wells to the fluorescence in untreated wells (survival fraction).

A2780 = experiment: Cytotoxicity, A2780 cells; format: cell-based, human; conditions: Homo sapiens; A2780, cisplatin-sensitive ovarian cells; read-out: IC50, mean ± SEM
Description: as §2, §3

[2] = more potent than HU, ref (6); cited from earlier work
TOV112D = experiment: Cytotoxicity, TOV112D cells; format: cell-based, human; conditions: Homo sapiens, read-out: IC50, mean ± SEM
Description: as §2, §3

PARP1 protein = PARP1 protein level by Western blot; format: cell-based, human
Description: as §1, with “After centrifugation at 1,200 g for 5 min, cells were incubated in buffer (50 mM HEPES, pH 7.5, 150 mM NaCl, 1 mM EDTA) containing 0.2% NONIDET™ P-40 (NP-40), supplemented with protease inhibitors (5 μg/ml each of pepstatin, leupeptin, and aprotinin) and phosphatase inhibitors on ice for 5 min.” left out

RR = RR (Homo sapiens, UniProt P31350); conditions: previously reported, ref (6); cited from earlier work
Sequence of RR (P31350 whole entry): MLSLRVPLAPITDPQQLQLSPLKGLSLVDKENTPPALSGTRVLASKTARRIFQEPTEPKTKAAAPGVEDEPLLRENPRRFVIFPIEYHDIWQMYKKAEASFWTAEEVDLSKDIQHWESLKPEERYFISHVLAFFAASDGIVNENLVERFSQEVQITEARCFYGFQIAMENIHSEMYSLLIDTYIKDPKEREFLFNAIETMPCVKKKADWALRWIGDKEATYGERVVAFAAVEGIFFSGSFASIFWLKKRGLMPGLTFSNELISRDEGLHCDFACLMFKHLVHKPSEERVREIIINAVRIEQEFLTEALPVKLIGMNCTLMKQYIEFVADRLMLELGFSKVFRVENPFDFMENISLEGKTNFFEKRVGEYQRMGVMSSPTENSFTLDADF

MDA-MB-231 = experiment: Cytotoxicity, MDA-MB-231 cells; format: cell-based, human; conditions: Homo sapiens; MDA-MB-231, TNBC; read-out: IC50, mean ± SEM
Description: as §2, §3

Compound: O=C(Nc1nc(-c2ccc(O)c(O)c2)c(-c2ccccc2)s1)c1ccc(O)c(O)c1 [COH29]
- γ-H2AX level ([1]; MCF7 and MCF-7 p53−/− cells): increase in the γ-H2AX level
- DNA damage checkpoint activation (phosphorylation of ATM, CHK1, CHK2) ([1]; MCF7 cells, wild-type p53): activated the DNA damage checkpoint
- DNA damage checkpoint proteins (ATM, CHK1, CHK2) modification ([1]; MCF-7 p53−/− cells): similarly modified
- IC50 (KB-Gem): 7.5 ± 0.29 µM
- IC50 (A2780): 4.67 ± 1.64 µM
- potency relative to HU [2]: 20 fold
- IC50 (TOV112D): 16 ± 2.08 µM
- effect on PARP1 protein level (PARP1 protein; HCC1937 BRCA1-defective cells, 24 h): attenuated PARP1 protein
- effect on PARP1 protein level (PARP1 protein; HCC1937 cells irrespective of BRCA1 status, 4 h treatment): Little reduction
- effect of RR inhibition on dNTP (RR): causes dNTP depletion in vivo
- IC50 (MDA-MB-231): 9.7 ± 1.52 µM
